Target: T1, α4·IgG heavy chain-β1·IgG heavy chain chimeric protein heterodimer complex (chimeric protein of VLA-4 and IgG heavy chain) (Homo sapiens, UniProt P05556+P13612)
T1 construct: a chimeric molecule being composed with the extracellular region of integrin α4 and an immunoglobulin heavy chain; a chimeric molecule being composed with the extracellular region of integrin β1 and an immunoglobulin heavy chain; made in house; unpurified culture supernatant used in the assay
Experiment: binding of α4·IgG heavy chain-β1·IgG heavy chain chimeric protein heterodimer complex to solid phase CS-1-IgG (absorbance at 490 nm)
Details: for inhibition at 50 µg/mL: Concentration 50 µg/ml, read-out: Inhibition rate (%)
Procedure: At first, according to the said report (Humphries, M. J. et al., J. Biol. Chem., 262, 6886-6892 (1987)), the peptide fragment of sequence No. 13 (CS-1 peptide) was bound to rabbit IgG (Sigma), to prepare CS-1-IgG. The CS-1-IgG was diluted by PBS(-), and supplied in a 96-well immunoplate (NUNC) by 100 µl/well, and allowed to stand at 4°C for 16 hours, to be formed as a solid phase on the plate.
After completion of standing, the surface of the plate was washed with PBS(-) twice and treated with 1% BSA(heat-denatured at 80°C for 10 minutes)-PBS solution (300 µl/well) at 4°C for 3 hours to block the nonspecific reaction. Then, the solid phase CS-1-IgG and the CHO culture supernatant (100 µl) containing α4·IgG heavy chain-β1·IgG heavy chain chimeric protein heterodimer complex were reacted with each other at 30°C for 3 hours. The non-bound α4·IgG heavy chain-β1·IgG heavy chain chimeric protein heterodimer complex was removed by washing with 0.1% BSA-containing TBS buffer (150 mM NaCl, 25 mM Tris-HCl, 1 mM MnCl2, pH 7.4) twice, and the bound α4·IgG heavy chain-β1·IgG heavy chain chimeric protein heterodimer complex was detected by biotin labeled anti-human IgG antibody (Vector) as the primary antibody and avidin labeled horseradish peroxidase (Sigma) used as the secondary anti body. The surface of the plate was washed with the TBS buffer. Orthophenylenediamine was added as a substrate to it for color development, and the absorbance at 490 nm were measured.
The all peptides were synthesized by a peptide synthesizer. The peptide and 100 µl of CHO cultured supernatant solution containing α4·IgG heavy chain-β1·IgG heavy chain chimeric protein heterodimer complex were mixed at room temperature for 20 minutes, and the binding to CS-1-IgG was determined according to the method in Example 4.
Reagents and the compounds stated in literature were picked up at random, adjusted to a final concentration of 50 µg/ml, and added to the binding assay system of Example 4. Compounds showing inhibitory activity were obtained. […]

T1 sequence (P13612 35-977 limits assumed, change not shown): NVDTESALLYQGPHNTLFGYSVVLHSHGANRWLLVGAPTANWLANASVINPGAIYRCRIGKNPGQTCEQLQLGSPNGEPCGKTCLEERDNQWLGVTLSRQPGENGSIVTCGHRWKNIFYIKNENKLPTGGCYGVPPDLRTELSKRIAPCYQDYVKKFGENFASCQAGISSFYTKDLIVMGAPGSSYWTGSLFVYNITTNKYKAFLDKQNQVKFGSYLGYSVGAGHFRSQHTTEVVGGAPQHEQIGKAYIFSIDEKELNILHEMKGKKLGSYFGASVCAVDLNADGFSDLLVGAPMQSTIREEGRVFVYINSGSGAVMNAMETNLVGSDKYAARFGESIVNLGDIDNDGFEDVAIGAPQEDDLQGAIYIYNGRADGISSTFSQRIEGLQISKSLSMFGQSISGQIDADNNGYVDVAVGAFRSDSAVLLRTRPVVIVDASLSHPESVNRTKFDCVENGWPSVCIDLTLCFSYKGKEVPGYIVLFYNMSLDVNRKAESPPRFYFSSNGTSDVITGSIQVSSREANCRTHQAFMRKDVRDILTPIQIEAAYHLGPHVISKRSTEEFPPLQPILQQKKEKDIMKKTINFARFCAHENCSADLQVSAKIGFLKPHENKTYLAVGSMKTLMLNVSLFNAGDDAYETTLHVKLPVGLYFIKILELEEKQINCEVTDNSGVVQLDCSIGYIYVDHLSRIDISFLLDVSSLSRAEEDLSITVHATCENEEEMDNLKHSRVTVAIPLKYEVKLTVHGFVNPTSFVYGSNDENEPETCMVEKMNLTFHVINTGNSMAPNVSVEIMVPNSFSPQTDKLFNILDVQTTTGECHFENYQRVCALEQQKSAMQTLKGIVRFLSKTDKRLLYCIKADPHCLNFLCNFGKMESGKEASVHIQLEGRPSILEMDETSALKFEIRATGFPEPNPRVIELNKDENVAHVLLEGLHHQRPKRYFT
T1 sequence (P05556 21-728 limits assumed, change not shown): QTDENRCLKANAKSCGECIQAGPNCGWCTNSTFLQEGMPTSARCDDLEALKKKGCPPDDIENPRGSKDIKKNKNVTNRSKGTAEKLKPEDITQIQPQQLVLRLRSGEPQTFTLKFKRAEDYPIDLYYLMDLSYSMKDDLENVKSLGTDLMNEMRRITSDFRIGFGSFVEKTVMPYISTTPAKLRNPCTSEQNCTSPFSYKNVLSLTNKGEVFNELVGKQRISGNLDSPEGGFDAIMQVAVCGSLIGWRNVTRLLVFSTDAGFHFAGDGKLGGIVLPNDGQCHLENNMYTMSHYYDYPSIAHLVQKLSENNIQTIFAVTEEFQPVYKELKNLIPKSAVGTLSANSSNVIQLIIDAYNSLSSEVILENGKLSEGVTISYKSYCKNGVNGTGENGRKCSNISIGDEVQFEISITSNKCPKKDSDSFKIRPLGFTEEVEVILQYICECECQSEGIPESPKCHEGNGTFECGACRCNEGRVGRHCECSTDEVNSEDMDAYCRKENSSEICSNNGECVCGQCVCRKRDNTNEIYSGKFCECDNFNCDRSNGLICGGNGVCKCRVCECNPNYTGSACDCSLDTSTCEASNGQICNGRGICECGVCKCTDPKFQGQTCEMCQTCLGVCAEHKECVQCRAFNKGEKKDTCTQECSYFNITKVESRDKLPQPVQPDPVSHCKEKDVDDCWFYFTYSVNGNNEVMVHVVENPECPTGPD
T1 sequence (P01857 99-330 partner limits assumed): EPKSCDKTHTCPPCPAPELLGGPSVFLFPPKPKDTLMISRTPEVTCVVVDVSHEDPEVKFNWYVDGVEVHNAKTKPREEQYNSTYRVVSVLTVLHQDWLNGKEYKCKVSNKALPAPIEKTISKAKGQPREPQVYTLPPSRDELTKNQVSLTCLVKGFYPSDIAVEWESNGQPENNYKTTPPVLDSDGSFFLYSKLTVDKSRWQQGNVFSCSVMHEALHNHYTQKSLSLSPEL

| SMILES | inhibition at 50 µg/mL | inhibition of binding to CS-1 peptide (5 mM, Fig. 1) |
| --- | --- | --- |
| O=c1ccc2ccc(O)cc2o1 [7-Hydroxycoumarin] | 87.5% |  |
| C[C@H](CCC(=O)O)[C@H]1CC[C@H]2[C@@H]3C(=O)C[C@@H]4CC(=O)CC[C@]4(C)[C@H]3CC(=O)[C@]12C [Dehydrocholic acid] | 39.5% |  |
| O=C(O)CN(CCN(CC(=O)O)CC(=O)O)CC(=O)O [EDTA] |  | almost perfectly inhibited |

Reference: patent publication EP0917878A1, “REMEDIES FOR HEPATITIS” (TORAY INDUSTRIES, INC., priority 1997, dated 1998)
